Several values for one entry are separate records, joined by “and”; a condition that tells them apart may be missing. Identical values can stand only once.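 Step 1: Grow cells in 96-well plates. Step 2: Expose to compound for 48 hours at 5 concentrations. Step 3: Interpolate endpoints linearly; if unreached, use highest concentration. GI50: concentration for 50% inhibition of growth. TGI: total growth inhibition.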
Legend:
Assay in all cases: NCI anticancer screen, dose series, 48 h
DU-145 prostate = test system: DU-145 prostate
HL-60(TB) leukemia = test system: HL-60(TB) leukemia
OVCAR-5 ovarian = test system: OVCAR-5 ovarian
A549 NSCLC = test system: A549 NSCLC
SN12C renal = test system: SN12C renal
MCF7 breast = test system: MCF7 breast
NCI-H226 lung = test system: NCI-H226 lung
MDA-MB-231 breast = test system: MDA-MB-231 breast
SK-MEL-28 melanoma = test system: SK-MEL-28 melanoma
HT29 colon = test system: HT29 colon

Compound	GI50 (DU-145 prostate) [µM]	TGI (DU-145 prostate) [µM]	GI50 (HL-60(TB) leukemia) [µM]	TGI (HL-60(TB) leukemia)	GI50 (OVCAR-5 ovarian) [µM]	TGI (OVCAR-5 ovarian) [µM]	GI50 (A549 NSCLC) [µM]	TGI (A549 NSCLC)	GI50 (SN12C renal) [µM]	TGI (SN12C renal)	GI50 (MCF7 breast) [µM]	TGI (MCF7 breast) [µM]	GI50 (NCI-H226 lung) [µM]	TGI (NCI-H226 lung)	GI50 (MDA-MB-231 breast) [µM]	TGI (MDA-MB-231 breast) [µM]	TGI (SK-MEL-28 melanoma)	TGI (HT29 colon) [µM]	GI50 (SK-MEL-28 melanoma) [µM]	GI50 (HT29 colon) [µM]
OCC#CCOCC#Cc1ccccc1C#CCOCC#CCO	48.4	> 100	47.4	> 100 µM	> 100	> 100	50.9	> 100 µM	26.7	80.9 µM	40.7	> 100	41.4	> 100 µM	30.2	83.4	–	–	–	–
O/N=C1/CCCC/C1=C/C=C/c1ccccc1	–	62.9	–	41.2 µM	–	76	–	54.9 µM	–	33.4 µM	–	–	–	60.7 µM	–	–	10.2 µM	32.9	–	–
Nc1nc(N)c2c(n1)NC(c1sc(Cl)nc1Cl)CC(c1ccccc1)=N2 (centres undefined)	11.2	24.2	2.04	8.22 µM	10.2	21.9	5.02	19.4 µM	5.83	18.5 µM	3.56	20.4	13.7	35.1 µM	3.86	16.5	17.8 µM	–	4.26	–
O=C1Cc2c(-c3ccccc3)cc(-c3ccccc3)nc2-c2ccccc2N1	–	20.3	–	> 100 µM	–	21.2	–	26.6 µM	–	30.8 µM	–	–	–	46.9 µM	–	17.2	83.7 µM	28	–	–
CCOC(=O)/C(=C/CC/C(C)=C/CC/C(C)=C/CCc1ccoc1)CC(=O)N1CCCCC1	7.76	43.4	2.99	7.4 µM	3.1	14.9	1.92	4.14 µM	3.79	14.8 µM	2.11	5.92	4.48	19.4 µM	1.96	4.17	12.4 µM	–	3.2	–
NC(Cc1ccccc1)C(=O)OCN1C(=O)C2C3C=CC(C2C1=O)C1C2C(=O)N(COC(=O)C(N)Cc4ccccc4)C(=O)C2C31 (centres undefined)	–	–	–	43.5 µM and > 100 µM	–	> 100	–	61.7 µM and 48.7 µM	–	52.7 µM and 43.9 µM	–	–	–	> 100 µM and 72.1 µM	–	–	44.4 µM and 36 µM	> 100	–	–
CN1CCN(CCCOc2cccc3nc(Nc4cc(Cl)cc(Cl)c4)ccc23)CC1	1.69	3.13	–	–	1.79	3.43	1.98	3.55 µM	3.74	13.9 µM	1.38	2.94	1.95	4.04 µM	1.57	3.12	3.13 µM	2.78	1.67	1.41
CC(C)C[C@H](CC(=O)O)C(=O)N[C@@H](Cc1c[nH]c2ccccc12)C(=O)N[C@@H](C)c1ccccc1	> 25	> 25	–	–	> 25	> 25	> 25	> 25 µM	> 25	> 25 µM	> 25	> 25	> 25	> 25 µM	> 25	> 25	> 25 µM	> 25	> 25	> 25
CCn1cnc(C[C@H](NC(=O)[C@H](CCCCNC(=O)Nc2cc(C(F)(F)F)cc(C(F)(F)F)c2)NC(=O)Nc2cc(C(F)(F)F)cc(C(F)(F)F)c2)C(=O)OC)c1	5.49	> 10	–	–	> 10	> 10	3.97	> 10 µM	5.69	> 10 µM	3.51	> 10	> 10	> 10 µM	2.58	6.37	> 10 µM	> 10	6.62	3.97
COC(=O)C(=O)C(CC(=O)Nc1cc(Cl)ccc1Cl)C(=O)OC (centres undefined)	–	–	–	> 100 µM	–	> 100	–	> 100 µM	–	> 100 µM	–	–	–	> 100 µM	–	–	> 100 µM	> 100	–	–
CC1=C(C(=O)Nc2cccc(Cl)c2)C(c2ccccc2O)C(C(=O)Nc2cccc(Cl)c2)=C(C)N1	–	–	–	48.1 µM	–	38.6	–	43.8 µM	–	39 µM	–	–	–	33.1 µM	–	–	31.9 µM	35.7	–	–
CCCCCCCCCCC(=O)CCCCCCC(=O)O	–	–	–	18.7 µM	–	51.3	–	32.2 µM	–	75.2 µM	–	–	–	> 100 µM	–	–	> 100 µM	36.1	–	–
Oc1ccc2ccccc2c1CCc1c(O)ccc2ccccc12	–	–	–	40.9 µM	–	27.2	–	25.3 µM	–	23.3 µM	–	26.3	–	33.2 µM	–	27.5	22.6 µM	18.6	–	–
N#CCCN(CCC#N)c1ccc(/C=C(/NC(=O)c2cc([N+](=O)[O-])ccc2Cl)C(=O)N=[N+]=[N-])cc1	–	–	–	> 100 µM	–	> 100	–	> 100 µM	–	> 100 µM	–	–	–	> 100 µM	–	–	> 100 µM	> 100	–	–
O=C(CCc1nc(=S)[nH][nH]1)Nc1cc(Cl)ccc1Cl	–	–	–	> 100 µM	–	> 100	–	> 100 µM	–	> 100 µM	–	–	–	> 100 µM	–	–	> 100 µM	> 100	–	–
